According to paper PMC11314410, “Synthesis and Anti-Trypanosoma cruzi Activity of New Pyrazole-Thiadiazole Scaffolds” (Molecules, 2024):
Where two headings read alike, the source gives them in different places.

Assays:
[1] = tested on: Trypomastigotes of T. cruzi (Dm28c-Luc); assay: microbe, parasite or virus in culture; format: cell-based, Trypanosoma cruzi; conditions: for IC50 / IC90: Trypanosoma cruzi, Dm28c-Luc, 24 h treatment; for IC50: 24 h, mean ± SD, read-out: Anti-T. cruzi Activity Trypomastigotes IC50; for IC90: read-out: Anti-T. cruzi Activity Trypomastigotes IC90
Description: (§1) Genetically modified T. cruzi parasites, of clone Dm28c (TcI) expressing the firefly luciferase enzyme gene (Dm28c-Luc), were kindly provided by Dr. Cristina Henriques. T. cruzi Dm28c-Luc was maintained in a Vero cell cultivated in RPMI 1640 medium supplemented with 10% FBS. At 4-day post-infection (dpi), trypomastigotes, released in the cell culture supernatant, were harvested, followed by sedimentation (4000 rpm/20 min/4 °C) and quantification in a Neubauer chamber. Isolated trypomastigotes were used in the phenotypic screening assays as well as the antiparasitic activity in 3D cardiac microtissues, recovery (washout), and drug combination assays.
Drug screening was performed against clinically relevant forms of T. cruzi (amastigotes and trypomastigotes). Trypomastigotes, Dm28c-Luc (1 × 10^6 parasites/well), were added to 96-well plates and incubated with pyrazole-thiadiazole derivatives or Bz (100–0.41 µM). After 24 h of treatment (37 °C), the viability of the parasites was analyzed by adding a D-Luciferin solution (300 µg/mL) and luminescence was measured in the Glomax microplate reader.

[2] = tested on: Intracellular amastigotes of T. cruzi (Dm28c-Luc); assay: microbe, parasite or virus in culture; format: cell-based, Trypanosoma cruzi; conditions: for IC50 / IC90: Trypanosoma cruzi; for IC90: read-out: Anti-T. cruzi Activity Intracellular Amastigotes IC90
Description: as §1
The activity of pyrazole-thiadiazole derivatives against intracellular amastigotes was evaluated in 24 h-T. cruzi infected Vero cell cultures (1.5 × 10^4 cells/well) at a 10:1 ratio. The cultures were washed and incubated with serial dilutions of the derivatives or Bz (100–0.41 µM). Drug treatment was carried out for 72 h at 37 °C and the parasite viability was determined by luminescence readout after D-Luciferin substrate addition (300 µg/mL). The reading was performed in the Glomax reader. The cell cultures incubated with the culture medium containing dimethylsulphoxide (DMSO; concentration ≤ 1%) were used as the […]. The concentrations required to inhibit parasite viability by 50% (IC50) and 90% (IC90) were calculated using Prism GraphPad software (version 8.2.1). The selectivity index (SI), which measures the window between cytotoxicity (CC50) and anti-T. cruzi activity (IC50), was calculated as CC50/IC50. A minimum of 3 independent assays in duplicate were performed.

[3] = Toxicity in mammalian cells (CellTiter Glo, 72 h); format: cell-based; conditions: African green monkey, Vero cells; 72 h, ATP levels; read-out: Cytotoxicity Vero Cells CC50
Description: Vero cell cultures grown in RPMI 1640 medium containing 10% fetal bovine serum (FBS) were cultured at 37 °C in a humidified atmosphere of 5% CO2 [82]. The cultures were used for drug screening assays and to obtain culture-derived trypomastigotes of T. cruzi.
Vero cells (1.5 ×10^4 cells/well), cultivated for 24 h at 37 °C in white 96-well plates with clear bottoms, were used to assess the toxicity of the pyrazole-thiadiazole derivatives (series 1 and 2). After washing, the cells were incubated for 72 h at 37 °C with different drug concentrations (500–1.95 μM). Cell viability was measured by adding 20 μL/well of CellTiter Glo reagent (Promega Corporation, Madison, WI, USA). This cell viability kit generates a luminescent signal proportional to the amount of ATP. The luminescence readout was performed using the Glomax Microplate Reader (Promega Corporation, Madison, WI, USA). Thus, the 50% cytotoxicity concentration (CC50), which reduces the cell viability by 50% (CC50), was calculated with Prism GraphPad software (version 8.2.1).

[4] = Vero, read-out: Intracellular Amastigotes pIC50 (converted)
[5] = Dm28c-Luc in Vero cells, 72 h treatment, mean ± SD, read-out: Anti-T. cruzi Activity Intracellular Amastigotes IC50
[6] = Dm28c-Luc in Vero cells, 72 h treatment, mean ± SD

In the case of `Nc1nnc(-c2cnn(-c3cccc(Br)c3)c2)s1` [1j, 5-Amino-2-(1-(3-bromophenyl)-1H-pyrazol-4-yl)-1,3,4-thiadiazole], the “Trypomastigotes SI (CC50 of Vero cells/IC50 of trypomastigotes)” value (shortened to “Trypomastigotes SI”) [1] is reported as >5, the IC50 [1] is reported as > 100 µM and the IC90 [1] is reported as > 100 µM. For the same compound, the “Intracellular Amastigotes SI (CC50 of Vero cells/IC50 of intracellular amastigotes)” value (“Intracellular Amastigotes SI” below) [2] was >7.14, the IC50 [2, 4] was > 70.8 µM and the IC50 [2, 5] was > 70 µM. For the same compound, the IC90 [2, 6] was > 70 µM, the CC50 at 72 h [3] was > 500 µM and the melting point was 301 to 303 °C.
For `Nc1nnc(-c2cnn(-c3ccc(Cl)cc3)c2N)s1` [2f, 5-Amino-2-(5-amino-1-(4-chlorophenyl)-1H-pyrazol-4-yl)-1,3,4-thiadiazole], the “Trypomastigotes SI” value [1] was >5, the IC50 [1] was > 100 µM and the IC90 [1] was > 100 µM. The “Intracellular Amastigotes SI” value [2] was >7.14, the IC50 [2, 4] was > 70.8 µM and the IC50 [2, 5] was > 70 µM. For the same compound, the IC90 [2, 6] was > 70 µM, the CC50 at 72 h [3] was > 500 µM and the melting point was 238 to 240 °C.
In the case of `Nc1nnc(-c2cnn(-c3ccc(F)cc3)c2N)s1` [2g, 5-Amino-2-(5-amino-1-(4-fluorophenyl)-1H-pyrazol-4-yl)-1,3,4-thiadiazole], the “Trypomastigotes SI” value [1] is reported as >5, the IC50 [1] is reported as > 100 µM and the IC90 [1] is reported as > 100 µM. The “Intracellular Amastigotes SI” value [2] was >7.14, the IC50 [2, 4] was > 70.8 µM and the IC50 [2, 5] was > 70 µM. For the same compound, the IC90 [2, 6] was > 70 µM, the CC50 at 72 h [3] was > 500 µM and the melting point was 251 to 253 °C.
With `COc1ccc(-n2ncc(-c3nnc(N)s3)c2N)cc1` [2l, 5-Amino-2-(5-amino-1-(4-methoxyphenyl)-1H-pyrazol-4-yl)-1,3,4-thiadiazole] the “Trypomastigotes SI” value [1] was >100, the IC50 [1] was > 100 µM and the IC90 [1] was > 100 µM. The “Intracellular Amastigotes SI” value [2] was >7.14, the IC50 [2, 4] was > 70.8 µM and the IC50 [2, 5] was > 70 µM. For the same compound, the IC90 [2, 6] was > 70 µM, the CC50 at 72 h [3] was > 500 µM and the melting point was 303 to 305 °C.
With `Nc1nnc(-c2cnn(-c3ccccc3)c2)s1` [1a, 5-Amino-2-(1-phenyl-1H-pyrazol-4-yl)-1,3,4-thiadiazole] the “Trypomastigotes SI” value [1] was >5, the IC50 [1] was > 100 µM and the IC90 [1] was > 100 µM. For the same compound, the “Intracellular Amastigotes SI” value [2] was >7.49, the IC50 [2, 4] was 69.2 µM and the IC50 [2, 5] was 68.6 ± 1.03 µM. The IC90 [2, 6] was > 70 µM, the CC50 at 72 h [3] was > 500 µM and the melting point was 289 to 291 °C.
For `Nc1nnc(-c2cnn(-c3ccc(Cl)c(Cl)c3)c2)s1` [1e, 5-Amino-2-(1-(3,4-dichlorophenyl)-1H-pyrazol-4-yl)-1,3,4-thiadiazole], the “Trypomastigotes SI” value [1] was >5, the IC50 [1] was > 100 µM and the IC90 [1] was > 100 µM. The “Intracellular Amastigotes SI” value [2] was >25.64, the IC50 [2, 4] was 18.6 µM and the IC50 [2, 5] was 18.8 ± 2.28 µM. The IC90 [2, 6] was 40.4 ± 13.3 µM, the CC50 at 72 h [3] was > 500 µM and the melting point was 313 to 315 °C.
For `Nc1nnc(-c2cnn(-c3cccc(Br)c3)c2N)s1` [2j, 5-Amino-2-(5-amino-1-(3-bromophenyl)-1H-pyrazol-4-yl)-1,3,4-thiadiazole], the “Trypomastigotes SI” value [1] was >5, the IC50 [1] was > 100 µM and the IC90 [1] was > 100 µM. For the same compound, the “Intracellular Amastigotes SI” value [2] was >7.14, the IC50 [2, 4] was > 70.8 µM and the IC50 [2, 5] was > 70 µM. For the same compound, the IC90 [2, 6] was > 70 µM, the CC50 at 72 h [3] was > 500 µM and the melting point was 245 to 246 °C.
In the case of `Nc1nnc(-c2cnn(-c3ccc(Cl)cc3)c2)s1` [1f, 5-Amino-2-(1-(4-chlorophenyl)-1H-pyrazol-4-yl)-1,3,4-thiadiazole], the “Trypomastigotes SI” value [1] is reported as >5, the IC50 [1] is reported as > 100 µM and the IC90 [1] is reported as > 100 µM. The “Intracellular Amastigotes SI” value [2] was >7.14, the IC50 [2, 4] was > 70.8 µM and the IC50 [2, 5] was > 70 µM. For the same compound, the IC90 [2, 6] was > 70 µM, the CC50 at 72 h [3] was > 500 µM and the melting point was 328 to 330 °C.
In the case of `Nc1nnc(-c2cnn(-c3ccc(Br)cc3)c2N)s1` [2i, 5-Amino-2-(5-amino-1-(4-bromophenyl)-1H-pyrazol-4-yl)-1,3,4-thiadiazole], the “Trypomastigotes SI” value [1] is reported as >5, the IC50 [1] is reported as > 100 µM and the IC90 [1] is reported as > 100 µM. For the same compound, the “Intracellular Amastigotes SI” value [2] was >7.58, the IC50 [2, 4] was 69.2 µM and the IC50 [2, 5] was 68.73 ± 0.05 µM. For the same compound, the IC90 [2, 6] was > 70 µM, the CC50 at 72 h [3] was > 500 µM and the melting point was 286 to 287 °C.
For `Nc1nnc(-c2cnn(-c3ccc(Cl)c(Cl)c3)c2N)s1` [2e, 5-Amino-2-(5-amino-1-(3,4-dichlorophenyl)-1H-pyrazol-4-yl)-1,3,4-thiadiazole], the “Trypomastigotes SI” value [1] was >6.88, the IC50 [1] was 72.6 ± 6.76 µM and the IC90 [1] was > 100 µM. For the same compound, the “Intracellular Amastigotes SI” value [2] was >13.73, the IC50 [2, 4] was 33.9 µM and the IC50 [2, 5] was 33.6 ± 2.16 µM. The IC90 [2, 6] was 58.8 ± 8.26 µM, the CC50 at 72 h [3] was > 500 µM and the melting point was 258 to 260 °C.
For `Nc1nnc(-c2cnn(-c3cccc(Cl)c3)c2N)s1` [2b, 5-Amino-2-(5-amino-1-(3-chlorophenyl)-1H-pyrazol-4-yl)-1,3,4-thiadiazole], the “Trypomastigotes SI” value [1] was >5, the IC50 [1] was > 100 µM and the IC90 [1] was > 100 µM. For the same compound, the “Intracellular Amastigotes SI” value [2] was >7.14, the IC50 [2, 4] was > 70.8 µM and the IC50 [2, 5] was > 70 µM. For the same compound, the IC90 [2, 6] was > 70 µM, the CC50 at 72 h [3] was > 500 µM and the melting point was 289 to 291 °C.
For `Nc1nnc(-c2cnn(-c3cccc(F)c3)c2)s1` [1h, 5-Amino-2-(1-(3-fluorophenyl)-1H-pyrazol-4-yl)-1,3,4-thiadiazole], the “Trypomastigotes SI” value [1] was >5, the IC50 [1] was > 100 µM and the IC90 [1] was > 100 µM. For the same compound, the “Intracellular Amastigotes SI” value [2] was >7.86, the IC50 [2, 4] was 67.6 µM and the IC50 [2, 5] was 66.8 ± 3.37 µM. For the same compound, the IC90 [2, 6] was > 70 µM, the CC50 at 72 h [3] was > 500 µM and the melting point was 302 to 303 °C.
For `COc1ccc(-n2cc(-c3nnc(N)s3)cn2)cc1` [1l, 5-Amino-2-(1-(4-methoxyphenyl)-1H-pyrazol-4-yl)-1,3,4-thiadiazole], the “Trypomastigotes SI” value [1] was >9.43, the IC50 [1] was 53 ± 4.44 µM and the IC90 [1] was > 100 µM. The “Intracellular Amastigotes SI” value [2] was >19.08, the IC50 [2, 4] was 24.5 µM and the IC50 [2, 5] was 24.5 ± 4.21 µM. For the same compound, the IC90 [2, 6] was > 70 µM, the CC50 at 72 h [3] was > 500 µM and the melting point was 298 to 300 °C.
For `Nc1nnc(-c2cnn(-c3ccc(F)cc3)c2)s1` [1g, 5-Amino-2-(1-(4-fluorophenyl)-1H-pyrazol-4-yl)-1,3,4-thiadiazole], the “Trypomastigotes SI” value [1] was >5, the IC50 [1] was > 100 µM and the IC90 [1] was > 100 µM. For the same compound, the “Intracellular Amastigotes SI” value [2] was >7.14, the IC50 [2, 4] was > 70.8 µM and the IC50 [2, 5] was > 70 µM. The IC90 [2, 6] was > 70 µM, the CC50 at 72 h [3] was > 500 µM and the melting point was 335 to 337 °C.
With `Nc1nnc(-c2cnn(-c3cccc(Cl)c3)c2)s1` [1b, 5-Amino-2-(1-(3-chlorophenyl)-1H-pyrazol-4-yl)-1,3,4-thiadiazole] the “Trypomastigotes SI” value [1] was >5, the IC50 [1] was > 100 µM and the IC90 [1] was > 100 µM. For the same compound, the “Intracellular Amastigotes SI” value [2] was >7.73, the IC50 [2, 4] was 67.6 µM and the IC50 [2, 5] was 68.1 ± 2.99 µM. The IC90 [2, 6] was > 70 µM, the CC50 at 72 h [3] was > 500 µM and the melting point was 310 to 311 °C.
In the case of `Nc1nnc(-c2cnn(-c3ccccc3)c2N)s1` [2a, 5-Amino-2-(5-amino-1-phenyl-1H-pyrazol-4-yl)-1,3,4-thiadiazole], the “Trypomastigotes SI” value [1] is reported as >5, the IC50 [1] is reported as > 100 µM and the IC90 [1] is reported as > 100 µM. For the same compound, the “Intracellular Amastigotes SI” value [2] was >7.14, the IC50 [2, 4] was > 70.8 µM and the IC50 [2, 5] was > 70 µM. The IC90 [2, 6] was > 70 µM, the CC50 at 72 h [3] was > 500 µM and the melting point was 131 to 132 °C.
